From patent publication US9179678B2, “Substituted [1,2,4]triazoles and substituted tetrazoles as herbicides” (SYNGENTA LIMITED, priority 2012, dated 2015)

Experiments:
Type in all cases: in vivo
Setaria faberi (SETFA) [1] = experiment: Pre-emergence glasshouse herbicide test; conditions: PRE Application, 1000 g/h, after 13 days
[2] = system: Alopecurus myosuroides (ALOMY); experiment: Pre-emergence glasshouse herbicide test; conditions: PRE Application, 1000 g/h, after 13 days
In short: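 Alopecurus myosuroides seeds were sown in standard soil in pots and kept one day in a glasshouse at 24/16° C. day/night, 14 hours light and 65% humidity. The soil was then sprayed pre-emergence with the active ingredient in acetone/water (50:50) containing 0.5% Tween 20. Plants grew on, watered twice daily, and percentage damage was scored 13 days later.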

[3] = system: Ipomoea hederacea (IPOHE); experiment: Pre-emergence glasshouse herbicide test; conditions: PRE Application, 1000 g/h, after 13 days
Solanum nigrum (SOLNI) [4] = experiment: Pre-emergence glasshouse herbicide test; conditions: PRE Application, 1000 g/h, after 13 days
[5] = system: Amaranthus retoflexus (AMARE); experiment: Pre-emergence glasshouse herbicide test; conditions: PRE Application, 1000 g/h, after 13 days
[6] = system: Echinochloa crus-galli (ECHCG); experiment: Pre-emergence glasshouse herbicide test; conditions: PRE Application, 1000 g/h, after 13 days
Setaria faberi (SETFA) [7] = experiment: Post-emergence glasshouse herbicide test; conditions: POST Application, 1000 g/h, after 13 days
In short: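 Setaria faberi seeds were sown in standard soil in pots and grown for 8 days in a glasshouse at 24/16° C. day/night, 14 hours light and 65% humidity. Plants were then sprayed post-emergence with the active ingredient in acetone/water (50:50) containing 0.5% Tween 20, regrown under the same conditions with twice-daily watering, and scored for percentage damage after 13 days.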

[8] = system: Alopecurus myosuroides (ALOMY); experiment: Post-emergence glasshouse herbicide test; conditions: POST Application, 1000 g/h, after 13 days
In short: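 Alopecurus myosuroides seeds were sown in pots of standard soil and grown for 8 days in a glasshouse at 24/16° C. day/night, 14 hours light and 65% humidity. The plants were then sprayed post-emergence with an aqueous solution made from the active ingredient in acetone/water (50:50) containing 0.5% Tween 20. Percentage plant damage was scored 13 days later.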

[9] = system: Ipomoea hederacea (IPOHE); experiment: Post-emergence glasshouse herbicide test; conditions: POST Application, 1000 g/h, after 13 days
Solanum nigrum (SOLNI) [10] = experiment: Post-emergence glasshouse herbicide test; conditions: POST Application, 1000 g/h, after 13 days
In short: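 Solanum nigrum seeds were sown in pots of standard soil and grown for 8 days in a glasshouse at 24/16° C. day/night, 14 hours light and 65% humidity. Plants were then sprayed post-emergence with the active ingredient formulated in acetone/water (50:50) containing 0.5% Tween 20. They were grown on under the same conditions with twice-daily watering, and percentage plant damage was scored after 13 days.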

[11] = system: Amaranthus retoflexus (AMARE); experiment: Post-emergence glasshouse herbicide test; conditions: POST Application, 1000 g/h, after 13 days
[12] = system: Echinochloa crus-galli (ECHCG); experiment: Post-emergence glasshouse herbicide test; conditions: POST Application, 1000 g/h, after 13 days

Compound	percentage damage caused to the plant, SETFA (Setaria faberi (SETFA) [1])	percentage damage caused to the plant, ALOMY [2]	percentage damage caused to the plant, IPOHE [3]	percentage damage caused to the plant, SOLNI (Solanum nigrum (SOLNI) [4])	percentage damage caused to the plant, AMARE [5]	percentage damage caused to the plant, ECHCG [6]	percentage damage caused to the plant, SETFA (Setaria faberi (SETFA) [7])	percentage damage caused to the plant, ALOMY [8]	percentage damage caused to the plant, IPOHE [9]	percentage damage caused to the plant, SOLNI (Solanum nigrum (SOLNI) [10])	percentage damage caused to the plant, AMARE [11]	percentage damage caused to the plant, ECHCG [12]
Cc1cc(-n2c(=O)c(C(=O)Nc3nnnn3C)nc3ccccc32)ccc1Cl [Compound 5.036]	4 (4=60-79%)	3 (3=40-59%)	5 (5=80-100%)	5 (5=80-100%)	5 (5=80-100%)	3 (3=40-59%)	4 (4=60-79%)	2 (2=20-39%)	5 (5=80-100%)	5 (5=80-100%)	5 (5=80-100%)	5 (5=80-100%)
Cn1nnnc1NC(=O)c1nc2ccccc2n(-c2ccc(Cl)c(C(F)(F)F)c2)c1=O [Compound 5.037]	5 (5=80-100%)	4 (4=60-79%)	5 (5=80-100%)	5 (5=80-100%)	5 (5=80-100%)	2 (2=20-39%)	5 (5=80-100%)	4 (4=60-79%)	5 (5=80-100%)	5 (5=80-100%)	5 (5=80-100%)	5 (5=80-100%)
Cc1cccc(-n2c(=O)c(C(=O)Nc3ncnn3C)nc3ccccc32)n1 [Compound 5.038]	4 (4=60-79%)	4 (4=60-79%)	3 (3=40-59%)	5 (5=80-100%)	5 (5=80-100%)	1 (1=0-19%)	5 (5=80-100%)	5 (5=80-100%)	5 (5=80-100%)	5 (5=80-100%)	5 (5=80-100%)	2 (2=20-39%)
COc1ccc(-n2c(=O)c(C(=O)Nc3nnnn3C)nc3ccccc32)cc1Cl [Compound 5.039]	2 (2=20-39%)	1 (1=0-19%)	2 (2=20-39%)	5 (5=80-100%)	5 (5=80-100%)	3 (3=40-59%)	1 (1=0-19%)	1 (1=0-19%)	5 (5=80-100%)	5 (5=80-100%)	5 (5=80-100%)	3 (3=40-59%)
Cn1nnnc1NC(=O)c1nc2ccccc2n(-c2ccc(C(F)(F)F)c(Cl)c2)c1=O [Compound 5.040]	1 (1=0-19%)	1 (1=0-19%)	3 (3=40-59%)	5 (5=80-100%)	5 (5=80-100%)	1 (1=0-19%)	2 (2=20-39%)	2 (2=20-39%)	5 (5=80-100%)	5 (5=80-100%)	5 (5=80-100%)	2 (2=20-39%)
Cn1ncnc1NC(=O)c1nc2ccccc2n(-c2ccccc2)c1=O [Compound 5.041]	1 (1=0-19%)	1 (1=0-19%)	2 (2=20-39%)	5 (5=80-100%)	5 (5=80-100%)	1 (1=0-19%)	1 (1=0-19%)	2 (2=20-39%)	5 (5=80-100%)	5 (5=80-100%)	5 (5=80-100%)	1 (1=0-19%)
Cn1nnnc1NC(=O)c1nc2ccccc2n(-c2ccc(I)cc2)c1=O [Compound 5.042]	2 (2=20-39%)	2 (2=20-39%)	5 (5=80-100%)	5 (5=80-100%)	5 (5=80-100%)	3 (3=40-59%)	5 (5=80-100%)	2 (2=20-39%)	5 (5=80-100%)	5 (5=80-100%)	5 (5=80-100%)	3 (3=40-59%)
Cn1nnnc1NC(=O)c1cc2cc(F)cnc2n(-c2ccccc2)c1=O [Compound 6.001]	1 (1=0-19%)	1 (1=0-19%)	4 (4=60-79%)	5 (5=80-100%)	4 (4=60-79%)	3 (3=40-59%)	3 (3=40-59%)	3 (3=40-59%)	5 (5=80-100%)	5 (5=80-100%)	5 (5=80-100%)	5 (5=80-100%)
Cc1nc2c(cc1F)cc(C(=O)Nc1nnnn1C)c(=O)n2-c1ccsc1 [Compound 6.002]	1 (1=0-19%)	1 (1=0-19%)	2 (2=20-39%)	4 (4=60-79%)	5 (5=80-100%)	1 (1=0-19%)	2 (2=20-39%)	1 (1=0-19%)	5 (5=80-100%)	5 (5=80-100%)	5 (5=80-100%)	4 (4=60-79%)
Cc1nc2c(cc1F)cc(C(=O)Nc1nnnn1C)c(=O)n2-c1ccccc1 [Compound 6.003]	1 (1=0-19%)	1 (1=0-19%)	3 (3=40-59%)	5 (5=80-100%)	5 (5=80-100%)	3 (3=40-59%)	3 (3=40-59%)	1 (1=0-19%)	5 (5=80-100%)	5 (5=80-100%)	5 (5=80-100%)	4 (4=60-79%)
Cn1nnnc1NC(=O)c1cc2ccccc2n(-c2ccccc2)c1=O [Compound 7.001]	1 (1=0-19%)	1 (1=0-19%)	1 (1=0-19%)	1 (1=0-19%)	2 (2=20-39%)	1 (1=0-19%)	1 (1=0-19%)	1 (1=0-19%)	2 (2=20-39%)	4 (4=60-79%)	3 (3=40-59%)	2 (2=20-39%)
Cn1nnnc1NC(=O)c1cc2ccccc2n(-c2ccsc2)c1=O [Compound 7.002]	1 (1=0-19%)	1 (1=0-19%)	2 (2=20-39%)	3 (3=40-59%)	2 (2=20-39%)	1 (1=0-19%)	1 (1=0-19%)	1 (1=0-19%)	2 (2=20-39%)	5 (5=80-100%)	3 (3=40-59%)	2 (2=20-39%)
